Read-outs that look alike come from different tables or passages of the source.
Tests used:
[1] = parameters: species or system human; settings: in vivo
Excerpt: Normal volunteers with no evidence or history of diabetes mellitus or of cardiac, liver, renal or pulmonary diseases were studied. The subjects consisted of 3 males and 1 female, ranging in age from 31 to 37 years, in body weight from 47 to 92 kg, and in body mass index (BMI) from 19.2 to 25.5. The purpose and possible risks of the study were explained to all subjects, and their voluntary written consent was obtained. The study protocol was approved by the Committee for the Protection of Human Subjects of the Institutional Review Board at Vanderbilt University School of Medicine. All studies were performed at the Clinical Research Center (CRC). Subjects were placed on balanced weight-maintenance diets for at least one week before the start of the study. Meat was excluded from the subjects' diets for three days before the study and during the study.
All studies were performed after a 10-12 hour overnight fast. On the morning of the experiment (6.30 to 7.00 hours), an 18-gauge Angiocatheter™ (Benton Dickinson, Sandy, Utah) was placed in a superficial hand vein of the nondominant arm for blood sampling. The hand was heated to 55° C. to ensure complete arterialization (Abumrad, N.N. et al., "Use of a heated superficial hand vein as an alternative site for the measurement of amino acid concentrations and for the study of glucose and alanine kinetics in man," Metabolism (1981) 30:936-940). In addition, a 16-gauge angiocatheter was inserted into the contralateral forearm vein for the infusion of L-3-[methyl-^2 H3 ]-histidine (MSD Isotopes, Montreal, Canada). Finally, another catheter was threaded retrograde into the brachial vein of the dominant arm and used for sampling of the forearm tissue.
Each study was four days in duration. Starting at t=0 (8.00 hours), subjects were administered a bolus infusion of L-3-[methyl^2 H3 ]-histidine (D3 -3-methylhistidine) at 0.13 μmol/kg into the forearm vein of the dominant arm. The infusate was passed through a Millex-GS sterilizing filter (0.22 μm; Millipore Products Divisions, Bedford, Mass.) before the infusion. Blood samples were obtained from the superficial hand vein and from the deep forearm vein at 0, 1, 2, 5, 10, 15, 30, 45, 90, 150, 210, 270, 330, and 720 min. postinjection. During this time, the subjects were required to stay at the Clinical Research Center, although they were allowed to ambulate freely within their rooms. Free access to food and drink was allowed after the 330-min sample. After 720 min, the catheters were removed and the patients were allowed to go home. For the following three days, the subjects returned to the CRC each morning before eating for further blood sampling by percutaneous venous puncture at 1,440, 2,880, and 4,320 min postinjection. Urine was collected over 24 hour periods the day before and for three days after tracer infusion.
Blood was collected in heparinized syringes, transferred to tubes containing Na2 EDTA (15 mg/tube), and centrifuged. The plasma obtained was immediately placed on ice. An aliquot of the plasma was processed for determination of 3-methylhistidine concentration as well as the L-3-[methyl-^2 H3 ]-histidine:3-methylhistidine isotope enrichment. The remainder of the plasma was frozen at -70° C. The urine obtained was processed for the determination of creatinine both as a measure of the completeness of the collection (Pencharz, P. B. et al., "The effect of an energy-restricted diet on the protein metabolism of obese adolescents: nitrogen-balance and whole-body nitrogen turnover," Clin. Sci. (1980) 59:13-18), and for the estimation of lean body mass (Blackburn, G. L. et al., "Nutritional and metabolic assessment of hospitalized patients," J. Parenter. Enteral. Nutr. (1977) 1:11-22). […]

[2] = parameters: species or system cattle; settings: bovine, in vivo
Description: A minimal model using 4-5 measurements and one compartment rather than three was evaluated. In the minimal model the three pools of the 3-compartment model were combined to form one homogeneous pool of 3-methylhistidine, characterized by a de novo production into the body pool and one exit from the model. The kinetic data between 720 and 4320 min was used for the analysis; this time frame corresponds to apparent linear steady state portion of the decay curve. The limitation of the 1-compartment model is the lost ability to described the entire metabolism of 3-methylhistidine. Only the rate of proteolysis and a total pool size can be estimated. […] (Rathmacher, J. et al., "The use of compartmental models of 3-methylhistidine flux to evaluate skeletal muscle protein turnover in implanted steers," J. Anim. Sci. (1993) 71:135.) However, in cattle the minimal model estimates of 3-methylhistidine production were 30% higher, but the estimates of 3-methylhistidine production were highly correlated (r=0.93, P 0.0001).

[3] = cited from earlier work
[4] = sheep, cited from earlier work
[5] = cattle; cited from earlier work
[6] = rabbit; cited from earlier work
[7] = cited from earlier work; remark: listed apart in the source
[8] = adult rat, Millward et al. 1980

3MH Production [1]: 3.1 µmol/kg/day
L0,1 fractional transfer rate [1]: .004 min⁻¹
L1,2 fractional transfer rate [1]: .06 min⁻¹
L2,3 fractional transfer rate [1]: .002 min⁻¹
L3,2 fractional transfer rate [1]: .009 min⁻¹
M1, compartment mass [1]: 603 nmol/kg
M2, compartment mass [1]: 912 nmol/kg
M3, compartment mass [1]: 7938 nmol/kg
R01 mass transfer rate [1]: 2.2 nmol/kg/min
R12 mass transfer rate [1]: 53 nmol/kg/min
R21 mass transfer rate [1]: 51 nmol/kg/min
R23 mass transfer rate [1]: 9.6 nmol/kg/min
R32 mass transfer rate [1]: 7.9 nmol/kg/min
Size of compartment 2 relative to compartment 1 [1]: 1.5 times
Size of compartment 3 relative to compartment 1 [1]: 13 times
Urinary 3MH loss [1]: 100 % of total
3-methylhistidine production, minimal model above 3-compartment model [2]: 30%
Compound: Cn1cnc(C[C@H](N)C(=O)O)c1 [3-methylhistidine]
Plasma levels of 3-methylhistidine over time [1]: did not change over the four days of the study
3MH Production ([3]; pigs, n=20, from model): 7.2 µmol/kg/day
M1, compartment mass ([3]; pigs, n=20): 1110 nmol/kg
M2, compartment mass ([3]; pigs, n=20): 2857 nmol/kg
M3, compartment mass ([3]; pigs, n=20): 6151 nmol/kg
R03 mass transfer rate ([3]; pigs, n=20): 5.0 nmol/kg/min
R12 mass transfer rate ([3]; pigs, n=20): 247 nmol/kg/min
R21 mass transfer rate ([3]; pigs, n=20): 247 nmol/kg/min
R23 mass transfer rate ([3]; pigs, n=20): 32 nmol/kg/min
R32 mass transfer rate ([3]; pigs, n=20): 37 nmol/kg/min
Urinary excretion of total daily 3-methylhistidine produced ([3]; pigs): 1.5 %/d
L0,3 fractional transfer rate ([3]; swine, number 20): .0009 min⁻¹
L1,2 fractional transfer rate ([3]; swine, number 20): .09 min⁻¹
L2,1 fractional transfer rate ([3]; swine, number 20): .23 min⁻¹
L2,3 fractional transfer rate ([3]; swine, number 20): .006 min⁻¹
L3,2 fractional transfer rate ([3]; swine, number 20): .014 min⁻¹
Urinary 3MH loss ([3]; swine, number 20): 1 % of total
3MH Production ([4]; n=36, from model): 10.1 µmol/kg/day
M1, compartment mass ([4]; n=36): 4693 nmol/kg
M2, compartment mass ([4]; n=36): 11634 nmol/kg
M3, compartment mass ([4]; n=36): 16494 nmol/kg
R01 mass transfer rate ([4]; n=36): 1.4 nmol/kg/min
R03 mass transfer rate ([4]; n=36): 5.7 nmol/kg/min
R12 mass transfer rate ([4]; n=36): 930 nmol/kg/min
R21 mass transfer rate ([4]; n=36): 928 nmol/kg/min
R23 mass transfer rate ([4]; n=36): 80 nmol/kg/min
R32 mass transfer rate ([4]; n=36): 84 nmol/kg/min
L0,1 fractional transfer rate ([4]; number 40): .0003 min⁻¹
L0,3 fractional transfer rate ([4]; number 40): .0004 min⁻¹
L1,2 fractional transfer rate ([4]; number 40): .08 min⁻¹
L2,1 fractional transfer rate ([4]; number 40): .21 min⁻¹
L2,3 fractional transfer rate ([4]; number 40): .005 min⁻¹
L3,2 fractional transfer rate ([4]; number 40): .007 min⁻¹
Urinary 3MH loss ([4]; number 40): 17 % of total
Urinary excretion of total daily 3-methylhistidine produced [4]: 15%
Urinary excretion [5]: quantitatively excreted in the urine
Urinary excretion [6]: quantitatively excreted in the urine
Contribution of skin and intestine to 3-methylhistidine excreted per day in urine ([7]; adult rat, Millward and Bates): 17%
Contribution of gastrointestinal tract to 3-methylhistidine excreted [7, 8]: 10%
Contribution of skeletal muscle to 3-methylhistidine excreted [7, 8]: 25%
Contribution of skin to 3-methylhistidine excreted [7, 8]: 7%
Reutilization for protein synthesis ([7]; no specific tRNA): not reutilized for protein synthesis
Share of total bound 3-methylhistidine in skeletal muscle ([7]; rat organs, Haverberg et al., skin and intestine not assessed): 98%
Urinary excretion ([7]; rat): quantitatively excreted in the urine
Contribution of small intestine to 24-hour urinary excretion ([7]; rats, duodenoileostomy): did not make a significant contribution
